Test results taken from patent US8927562B2, “Fused tricyclic inhibitors of mammalian target of rapamycin” (Merck Sharp & Dohme Corp., priority 2010, dated 2015).

Molecular target: mTOR enzyme (Homo sapiens, UniProt P42345)
Test: mTOR Kinase Assay
Assay type: biochemical
Conditions: 5 μM ATP, 0.1 μM GSTS6K substrate
Experimental: The mTOR assay buffer contains 10 mM hepes (pH 7.4), 50 mM NaCl, 100 μg/ml BSA, 50 mM B-glycerophosphate, 10 mM MnCl2 and 0.5 mM DTT. 20 ng of mTOR enzyme is preincubated with the compound for 10 minutes. 5 μM ATP and 0.1 μM GSTS6K is added. The reaction is incubated for one hour at 30° C. Anti phospho p70S6K (about 1.7 ng/well) and anti GSTXL665 (1:1 Ratio with the substrate GSTS6K) are added after incubating. The plates are read at least 2 hours after adding the anti phospho p70S6K and the anti GSTXL665.
Dose-response curves were plotted from inhibition data generated, each in duplicate, from 8 point serial dilutions of inhibitory compounds. Concentration of compound was plotted against % kinase activity, calculated by CPM of treated samples divided by CPM of untreated samples. To generate IC50 values, the dose-response curves were then fitted to a standard sigmoidal curve and IC50 values were derived by nonlinear regression analysis.

Structure (SMILES) | IC50 [nM]
Nc1c2c(nc3c(-c4ccc(-c5ccccc5)nc4)cnn13)C(NC1CCOCC1)CC2 (stereo not drawn) [Example 3, 3-(6-phenylpyridin-3-yl)-N5-(tetrahydro-2H-pyran-4-yl)-6,7-dihydro-5H-cyclopenta[d]pyrazolo[1,5-a]pyrimidine-5,8-diamine] | > 100
Cc1cn(C2CCN(C(=O)c3nnc[nH]3)CC2)c2nc3c(-c4cnc5ccc(F)cc5c4)cnn3c(N)c12 [Example 5] | < 10
Cc1cn(C2CCN(C(=O)CO)CC2)c2nc3c(-c4ccc(-c5ccccc5)nc4)cnn3c(N)c12 [Example 9] | < 10
Cc1cn(C2CCN(C(=O)CO)CC2)c2nc3c(-c4cnc5ccc(F)cc5c4)cnn3c(N)c12 [Example 4, 1-(4-(8-amino-3-(6-fluoroquinolin-3-yl)-7-methyl-5H-pyrazolo[1,5-a]pyrrolo[2,3-d]pyrimidin-5-yl)piperidin-1-yl)-2-hydroxyethanone] | < 10
C[C@@H](O)C(=O)N1Cc2nc3c(-c4ccc(-c5ccccc5)nc4)cnn3c(N)c2C1 [Example 1, (R)-1-(8-amino-3-(6-phenylpyridin-3-yl)-5H-pyrazolo[1,5-a]pyrrolo[3,4-d]pyrimidin-6(7H)-yl)-2-hydroxypropan-1-one] | 10 to 100
Cc1cn(C2CCN(C(=O)c3nnc[nH]3)CC2)c2nc3c(-c4ccc(-c5ccn(C)n5)nc4)cnn3c(N)c12 [Example 10] | < 10
Cc1cn(C2CCN(C(=O)CO)CC2)c2nc3c(-c4cnn(-c5ccccc5)c4)cnn3c(N)c12 [Example 13] | < 10
Cc1cn(C2CCN(C(=O)c3nnc[nH]3)CC2)c2nc3c(-c4cnn(-c5ccccc5)c4)cnn3c(N)c12 [Example 12] | 10 to 100
Cc1cn(C2CCN(C(=O)c3nnc[nH]3)CC2)c2nc3c(-c4ccc(-c5ncc[nH]5)nc4)cnn3c(N)c12 [Example 14] | < 10
Nc1c2c(nc3c(-c4ccc(-c5ccccc5)nc4)cnn13)CS(=O)(=O)C2 [Example 2, 3-(6-phenylpyridin-3-yl)-5,7-dihydropyrazolo[1,5-a]6,6-dioxidothieno[3,4-d]pyrimidin-8-amine] | 10 to 100
Cc1cn(C2CCN(C(=O)CO)CC2)c2nc3c(-c4ccc(-c5ncc[nH]5)nc4)cnn3c(N)c12 [Example 15] | < 10
Cc1cn(C2CCN(C(=O)c3nnc[nH]3)CC2)c2nc3c(-c4ccc(-c5ccccc5)nc4)cnn3c(N)c12 [Example 6] | 10 to 100
Cc1cn(C2CCN(C(=O)c3cc(N)n[nH]3)CC2)c2nc3c(-c4ccc(-c5ccccc5)nc4)cnn3c(N)c12 [Example 8] | 10 to 100
Cc1cn(C2CCN(C(=O)c3nnc(N)[nH]3)CC2)c2nc3c(-c4ccc(-c5ccccc5)nc4)cnn3c(N)c12 [Example 7] | 10 to 100
Cc1cn(C2CCN(C(=O)CO)CC2)c2nc3c(-c4ccc(-c5ccn(C)n5)nc4)cnn3c(N)c12 [Example 11] | 10 to 100
